Reference: the NIST ThermoML archive (doi:10.1021/je060415l)
Where “and” joins values, the source holds several entries; their conditions need not be identical. Equal values may be shown once.

Experiment: isobaric coefficient of expansion
Conditions: Liquid, expansion method

CO [methanol]
Conditions | isobaric coefficient of expansion
196.17 K, 590 kPa | 0.00112 1/K
196.97 K, 80030 kPa | 0.000894 1/K
198.11 K, 590 kPa | 0.00112 1/K
199.3 K, 80030 kPa | 0.000894 1/K
200.13 K, 590 kPa | 0.00112 1/K
201.61 K, 80030 kPa | 0.000891 1/K
202.14 K, 590 kPa | 0.00112 1/K and 0.00113 1/K
203.94 K, 80030 kPa | 0.000891 1/K
204.09 K, 590 kPa | 0.00112 1/K
206.06 K, 590 kPa | 0.00112 1/K
206.3 K, 80030 kPa | 0.000888 1/K
208.02 K, 590 kPa | 0.00112 1/K
208.16 K, 20010 kPa | 0.00105 1/K
208.68 K, 80030 kPa | 0.000886 1/K
209.97 K, 590 kPa | 0.00112 1/K and 0.00114 1/K
210.16 K, 20010 kPa | 0.00104 1/K
210.17 K, 45100 kPa | 0.000966 1/K
211.07 K, 80030 kPa | 0.000883 1/K
211.93 K, 590 kPa | 0.00111 1/K and 0.00112 1/K
212.17 K, 20010 kPa | 0.00104 1/K
212.17 K, 45100 kPa | 0.000968 1/K
213.46 K, 80030 kPa | 0.00088 1/K
213.91 K, 590 kPa | 0.00112 1/K and 0.00111 1/K
214.17 K, 20010 kPa | 0.00104 1/K
214.17 K, 45100 kPa | 0.000963 1/K
215.9 K, 590 kPa | 0.00112 1/K
216 K, 80030 kPa | 0.000874 1/K
216.17 K, 20010 kPa | 0.00104 1/K
216.17 K, 45100 kPa | 0.000964 1/K
217.87 K, 590 kPa | 0.00112 1/K
218.17 K, 20010 kPa | 0.00104 1/K
218.18 K, 45100 kPa | 0.000965 1/K
218.19 K, 590 kPa | 0.00111 1/K
219.84 K, 590 kPa | 0.00112 1/K
220.16 K, 590 kPa | 0.00113 1/K
220.18 K, 20010 kPa | 0.00104 1/K
220.18 K, 45100 kPa | 0.000962 1/K
220.38 K, 80030 kPa | 0.000872 1/K
221.82 K, 590 kPa | 0.00111 1/K
222.14 K, 590 kPa | 0.00111 1/K
222.17 K, 20010 kPa | 0.00104 1/K
222.18 K, 45100 kPa | 0.000966 1/K
222.8 K, 80030 kPa | 0.000867 1/K
223.82 K, 590 kPa | 0.00112 1/K
224.15 K, 590 kPa | 0.00111 1/K
224.17 K, 20010 kPa | 0.00104 1/K
224.17 K, 45100 kPa | 0.00096 1/K
225.25 K, 80030 kPa | 0.000863 1/K
225.86 K, 590 kPa | 0.00111 1/K
226.15 K, 590 kPa | 0.00112 1/K
226.16 K, 45100 kPa | 0.000962 1/K
226.17 K, 20010 kPa | 0.00104 1/K
227.72 K, 80030 kPa | 0.000861 1/K
227.95 K, 590 kPa | 0.00112 1/K
228.15 K, 590 kPa | 0.00112 1/K
228.16 K, 20010 kPa | 0.00104 1/K
228.16 K, 45100 kPa | 0.000958 1/K
230.04 K, 590 kPa | 0.00111 1/K
230.16 K, 20010 kPa | 0.00105 1/K
230.17 K, 590 kPa | 0.00112 1/K
230.17 K, 45100 kPa | 0.000957 1/K
230.17 K, 80030 kPa | 0.00086 1/K
232.14 K, 590 kPa | 0.00112 1/K
232.17 K, 20010 kPa | 0.00104 1/K
232.17 K, 45100 kPa | 0.000959 1/K
232.18 K, 590 kPa | 0.00113 1/K
232.57 K, 80030 kPa | 0.000869 1/K
234.16 K, 590 kPa | 0.00113 1/K
234.17 K, 20010 kPa | 0.00103 1/K
234.17 K, 45100 kPa | 0.000956 1/K
234.19 K, 590 kPa | 0.00112 1/K
234.98 K, 80030 kPa | 0.000859 1/K
236.16 K, 590 kPa | 0.00112 1/K
236.17 K, 20010 kPa | 0.00104 1/K
236.17 K, 45100 kPa | 0.000953 1/K
236.18 K, 590 kPa | 0.00112 1/K
237.42 K, 80030 kPa | 0.00086 1/K
238.17 K, 590 kPa | 0.00112 1/K
238.17 K, 20010 kPa | 0.00103 1/K
238.17 K, 45100 kPa | 0.000949 1/K
239.85 K, 80030 kPa | 0.000855 1/K
240.17 K, 590 kPa | 0.00112 1/K
240.17 K, 45100 kPa | 0.000949 1/K
240.25 K, 20010 kPa | 0.00103 1/K
242.17 K, 590 kPa | 0.00112 1/K
242.17 K, 45100 kPa | 0.000942 1/K
242.25 K, 20010 kPa | 0.00103 1/K
242.29 K, 80030 kPa | 0.000853 1/K
244.18 K, 590 kPa | 0.00112 1/K
244.18 K, 45100 kPa | 0.000941 1/K
244.19 K, 20010 kPa | 0.00103 1/K
244.74 K, 80030 kPa | 0.000851 1/K
246.19 K, 590 kPa | 0.00112 1/K
246.19 K, 20010 kPa | 0.00104 1/K
247.21 K, 80030 kPa | 0.000847 1/K
248.17 K, 20010 kPa | 0.00104 1/K
248.17 K, 45100 kPa | 0.000942 1/K
248.19 K, 590 kPa | 0.00112 1/K
249.69 K, 80030 kPa | 0.000847 1/K
250.17 K, 20010 kPa | 0.00104 1/K
250.17 K, 45100 kPa | 0.000939 1/K
250.18 K, 590 kPa | 0.00112 1/K
252.18 K, 590 kPa | 0.00113 1/K
252.18 K, 20010 kPa | 0.00103 1/K
252.18 K, 45100 kPa | 0.000938 1/K
252.2 K, 80030 kPa | 0.000842 1/K
254.18 K, 590 kPa | 0.00113 1/K
254.18 K, 20010 kPa | 0.00103 1/K
254.18 K, 45100 kPa | 0.00094 1/K
254.72 K, 80030 kPa | 0.000837 1/K
256.17 K, 590 kPa | 0.00114 1/K
256.17 K, 20010 kPa | 0.00103 1/K
256.18 K, 45100 kPa | 0.000937 1/K
257.2 K, 80030 kPa | 0.00084 1/K
258.17 K, 590 kPa | 0.00113 1/K
258.17 K, 20010 kPa | 0.00104 1/K
258.18 K, 45100 kPa | 0.000937 1/K
259.68 K, 80030 kPa | 0.000841 1/K
260.18 K, 590 kPa | 0.00113 1/K
260.18 K, 45100 kPa | 0.000932 1/K
262.17 K, 590 kPa | 0.00114 1/K
262.17 K, 20010 kPa | 0.00103 1/K
262.17 K, 45100 kPa | 0.000936 1/K
262.21 K, 80030 kPa | 0.000841 1/K
264.17 K, 20010 kPa | 0.00103 1/K
264.17 K, 45100 kPa | 0.000938 1/K
264.77 K, 80030 kPa | 0.000839 1/K
266.17 K, 590 kPa | 0.00113 1/K
266.17 K, 20010 kPa | 0.00103 1/K
266.17 K, 45100 kPa | 0.000942 1/K
267.34 K, 80030 kPa | 0.000835 1/K
268.16 K, 20010 kPa | 0.00103 1/K
268.17 K, 590 kPa | 0.00114 1/K
268.17 K, 45100 kPa | 0.000934 1/K
269.32 K, 80030 kPa | 0.000834 1/K
270.16 K, 590 kPa | 0.00114 1/K
270.16 K, 20010 kPa | 0.00104 1/K
272.14 K, 45100 kPa | 0.00094 1/K
272.52 K, 80030 kPa | 0.000831 1/K
274.14 K, 45100 kPa | 0.000947 1/K
274.15 K, 20010 kPa | 0.00104 1/K
275.11 K, 80030 kPa | 0.000835 1/K
276.12 K, 590 kPa | 0.00114 1/K
276.14 K, 45100 kPa | 0.000938 1/K
276.15 K, 20010 kPa | 0.00104 1/K
277.69 K, 80030 kPa | 0.000835 1/K
278.13 K, 45100 kPa | 0.00094 1/K
278.15 K, 20010 kPa | 0.00104 1/K
278.16 K, 590 kPa | 0.00115 1/K
280.14 K, 45100 kPa | 0.00094 1/K
280.15 K, 20010 kPa | 0.00104 1/K
280.16 K, 590 kPa | 0.00115 1/K
280.28 K, 80030 kPa | 0.000833 1/K
282.13 K, 45100 kPa | 0.00094 1/K
282.15 K, 590 kPa | 0.00116 1/K
282.15 K, 20010 kPa | 0.00104 1/K
282.88 K, 80030 kPa | 0.000832 1/K
284.13 K, 45100 kPa | 0.000945 1/K
284.14 K, 590 kPa | 0.00116 1/K
284.14 K, 20010 kPa | 0.00104 1/K
285.53 K, 80030 kPa | 0.000829 1/K
286.15 K, 590 kPa | 0.00118 1/K
286.15 K, 20010 kPa | 0.00105 1/K
288.14 K, 45100 kPa | 0.000945 1/K
288.16 K, 590 kPa | 0.00117 1/K
288.17 K, 80030 kPa | 0.000826 1/K
289.13 K, 590 kPa | 0.00118 1/K
290.13 K, 45100 kPa | 0.000945 1/K
290.14 K, 20010 kPa | 0.00106 1/K
290.16 K, 590 kPa | 0.00117 1/K
290.79 K, 80030 kPa | 0.000832 1/K
291.13 K, 590 kPa | 0.00118 1/K
292.14 K, 45100 kPa | 0.000943 1/K
292.15 K, 20010 kPa | 0.00104 1/K
292.16 K, 590 kPa | 0.00117 1/K
293.12 K, 590 kPa | 0.00119 1/K
293.4 K, 80030 kPa | 0.000846 1/K
294.13 K, 45100 kPa | 0.000938 1/K
294.14 K, 20010 kPa | 0.00105 1/K
294.16 K, 590 kPa | 0.00118 1/K
295.12 K, 590 kPa | 0.0012 1/K
296.02 K, 80030 kPa | 0.000842 1/K
296.13 K, 45100 kPa | 0.00094 1/K
296.14 K, 20010 kPa | 0.00105 1/K
296.16 K, 590 kPa | 0.00117 1/K
297.12 K, 590 kPa | 0.00118 1/K
298.13 K, 45100 kPa | 0.000942 1/K
298.15 K, 20010 kPa | 0.00105 1/K
298.17 K, 590 kPa | 0.00118 1/K
298.65 K, 80030 kPa | 0.00085 1/K
300.16 K, 590 kPa | 0.00119 1/K
301.27 K, 80030 kPa | 0.000833 1/K
